Several values for one entry are separate records, joined by “and”; a condition that tells them apart may be missing. Equal values may be shown once.
Experiments:
[1] = tested on: STZ-induced central sensitization in Sprague-Dawley rats; assay: PWT (von Frey), streptozotocin rat model of central sensitization (Example 4); assay type: in vivo
Method: Sprague-Dawley rats were fasted for 4-6 hours before being injected intraperitoneally with 45 mg/kg STZ. This was performed for all experimental groups, except the naive group. In order to prevent hypoglycaemic death, rats received 10% sucrose water as the sole water source for the first 48 hours after injection. In order to ensure only those rats considered diabetic (i.e., having non-fasting plasma glucose levels of >250 mg/dL) were included in the study, blood glucose was measured at 72 hours after the STZ injection.
Four weeks after STZ injection, the rats were randomised into treatment groups. This delay between STZ injection and treatment allows the establishment of chronic pain (allodynia) associated with central sensitization. […] 5% lidocaine cream (positive control) was applied only once to both hind paws of the rats 30 minutes before measurement of PWT.
The rats were split into 8 study groups, with those in the experimental groups (1-4) having an average body weight of about 225 g, and those in the control groups (5-8) having an average body weight of about 335 g, as follows: • 1. Group 1: naive rats (n=5) • 2. Group 2: STZ only (n=6) • 3. Group 3: STZ plus vehicle (n=6) • 4. […] Group 5: STZ plus oral vehicle (n=8) • 6. Group 6: STZ plus 0.7% sulindac hydrogel (n=7) • 7. Group 7: STZ plus 5% lidocaine cream (n=8) • 8.

[2] = tested on: NTG-induced migraine in mice; assay: PWT (von Frey), NTG-induced migraine mouse model, intraperitoneal clinical compounds (Example 15); conditions: 30 min after single i.p. dose given 30 min after NTG; topiramate 30 mg/kg, sumatriptan 600 μg/kg, propranolol 10 mg/kg, gabapentin 30 mg/kg
Method: In line with the earlier Examples, migraine was induced using 0.4 mg of NTG administered sublingually in the form of a finely crushed 0.4 mg NTG tablet (Greenstone Brand).
A single intraperitoneal dose of topiramate (30 mg/kg), sumatriptan (600 μg/kg), propranolol (10 mg/kg), gabapentin (30 mg/kg) or vehicle was administered 30 min after the induction of migraine, at the indicated doses.
Group 1: baseline (i.e, no NTG treatment) • 2. Group 2: vehicle • 3. Group 3: topimarate • 4. Group 4: sumatriptan • 5. Group 5: propanolol • 6. Group 6: gabapentin
Mechanical allodynia was determined using the method of von Frey filaments in line with that performed in the earlier Examples. The PWT test was performed 30 minutes after compound or vehicle control administration. The mechanical threshold, expressed as g, indicates the force of the von Frey filament to which the animal reacted.

[3] = tested on: NTG-induced chronic migraine in mice; assay: PWT (von Frey), NTG-induced chronic migraine model, oral (Example 16)
Method: In particular, mice receive sublingual NTG 0.4 mg in the form of a finely crushed 0.4 mg NTG tablet (Greenstone Brand) every two days, receiving a total of five doses. For control mice, an NTG placebo (Practi-Nitroglycerin Sublingual 0.4 mg Simulated Medication tablet) was administered in the same way.
Group 1: placebo NTG (i.e, no NTG treatment, n=8) • 2. Group 2: NTG (n=8) • 3. Group 3: NTG+vehicle (n=8) • 4. […] Group 5: NTG+sulindac (n=8)
Mechanical allodynia was determined using von Frey filaments in line with that performed in the earlier Examples. The PWT test was performed prior to NTG (or placebo NTG) administration to determine baseline values, as indicated. […] The mechanical threshold, expressed as g, indicates the force of the von Frey filament to which the animal reacted.

[4] = tested on: NTG-induced migraine in C57BL/6J mice; assay: PWT (von Frey), NTG-induced migraine mouse model, topical (Example 13); conditions: confirmation of NTG model
Method: Specifically, instead of the intraperitoneal injection of NTG, a finely crushed 0.4 mg NTG tablet (Greenstone Brand) was administered sublingually. As a control, a Practi-Nitroglycerin Sublingual 0.4 mg Simulated Medication tablet was used.
For determining mechanical allodynia, pain threshold responses were measured using the well-established method of von Frey filaments in line with that performed in the earlier Examples.
The PWT test, assessing mechanical allodynia, was performed 30 minutes after treatment. The mechanical threshold, expressed as g, indicates the force of the von Frey filament to which the animal reacted.

[5] = tested on: paclitaxel-induced pain associated with central sensitization in C57BL/6J mice; assay: Mechanical allodynia (von Frey), paclitaxel-induced pain, topical PS 8% (Example 2); assay type: in vivo, mouse
Text: (§1) Food and water were available ad libitum.
(§2) Paw withdrawn, licking or shaking were considered positive responses.

[6] = tested on: paclitaxel-induced central sensitization in C57/BL/6J mice; assay: Cold allodynia (acetone test), paclitaxel model (Example 3); assay type: in vivo, mouse; conditions: after paclitaxel treatment
Method: To determine the outcome of treatment, assessment of mechanical allodynia was performed. […] Both methods of assessing allodynia are described in Toma W, et al. Neuropharmacology 2017; 117:305-15. Mechanical and cold allodynia are determined at least one day apart in the same animal.
The acetone test was used. Briefly, acetone was applied onto the plantar surface of each hind paw. The time each mouse spent licking, lifting, and/or shaking the hind paw recorded over 60 seconds was the score for cold allodynia. Measurements were performed on day-8 (before the first paclitaxel injection), the day of starting treatment (day 0) and then on day 15.

[7] = tested on: paclitaxel-induced CIPN in C57BL/6J mice; assay: PWT (von Frey), mouse model of CIPN, oral administration (Example 5); assay type: in vivo; conditions: day 7; oral gavage three times a day for 7 days, PS 50 mg/kg, sulindac 33 mg/kg
Text: CIPN was induced in mice with chemotherapeutic agents using established protocols (Carozzi et al, 2010; Currie et al, 2019; Eldridge et al, 2020). […] This dosing regimen of paclitaxel produces pain associated with CIPN with time courses that are similar to those of pain after paclitaxel administration in cancer patients.
Group 1: naive mice (i.e. no paclitaxel, n=8) • 2. Group 2: paclitaxel only (n=8) • 3. Group 3: paclitaxel plus vehicle (n=8) • 4. […] Group 5: paclitaxel plus sulindac (n=8)
The PWT test was performed on day 7.

[8] = tested on: paclitaxel-induced central sensitization in C57/BL/6J mice
Method: Regarding the treatment with lidocaine: 5% lidocaine cream (a positive control) was applied once to both hind paws of the mice 30 minutes before measurement of PWT.
Briefly, for mechanical allodynia, pain threshold responses were measured using the well-established method of von Frey filaments in line with that performed in the earlier Examples. The PWT test was performed on day-8 (before the first dose of paclitaxel), the day of starting treatment (day 0, at which central sensitization was fully established) and day 14 (treatment continued until day 15). The mechanical threshold, expressed as g, indicates the force of the von Frey filament to which the animal reacted.

[9] = tested on: paclitaxel-induced central sensitization in C57/BL mice; assay: Paw withdrawal threshold (von Frey), paclitaxel model, topical PS (Example 1); conditions: day 10, about 30 min after last application; PS 8% hydrogel topically to both hind paws 3 times a day for 10 days
[10] = PS and metabolites in proximal and distal half of the sciatic nerve (Example 25); assay type: in vivo, mouse; conditions: mouse, in vivo
Method: In a separate experiment we studied 8 mice with paclitaxel-induced PN treated with PS 8% ointment 3×/d for 2 wks. Mice were euthanized as above 30 minutes after the last dose of PS. From these mice we harvested both sciatic nerves dividing each into proximal and distal halves, and combined the corresponding halves of every two animals for assay of drug levels.

[11] = tested on: NTG-induced chronic migraine in mice; assay: PWT (von Frey), NTG-induced chronic migraine model, intraperitoneal topiramate and sumatriptan (Example 17); assay type: in vivo, mouse
Method: The NTG-induced chronic migraine model was used as described previously.
sumatriptan (600 μg/kg), or vehicle was administered.
. Group 1: NTG+vehicle (n=8) • 2. Group 2: NTG+topiramate (n=8) • 3. Group 3: NTG+sumatriptan (n=8)

[12] = tested on: oxaliplatin-induced pain associated with central sensitization in C57BL/6J mice; assay: Mechanical allodynia (von Frey), oxaliplatin-induced pain, topical PS 8% (Example 2); assay type: in vivo, mouse; conditions: day 0, in the two study groups respectively; cumulative 30 mg/kg i.p.
Text: as §1
(§3) Protocol for the Treatment of Established Pain Associated with Central Sensitization with PS
as §2

[13] = tested on: chronic constriction injury-induced peripheral neuropathy in C57BL/6J mice; assay: PWT (von Frey), chronic constriction injury model of PTPN, topical (Example 7); conditions: day 14, PS 5% gel or sulindac 0.7% gel on left paw three times a day for 14 days, pregabalin once by oral gavage 1 h before
Method: Group 1: ligation only (i.e, surgical control with no treatment, n=5-7) • 2. Group 2: vehicle control (n=5-7) • 3. […] Group 4: 0.7% sulindac (n=5-7) • 5.
Briefly, for determining mechanical allodynia, pain threshold responses were measured using the well-established method of von Frey filaments in line with that performed in the earlier Examples. The PWT test was performed on day 14. The mechanical threshold, expressed as g, indicates the force of the von Frey filament to which the animal reacted.

[14] = tested on: vincristine-induced pain associated with central sensitization in C57BL/6J mice; assay: Mechanical allodynia (von Frey), vincristine-induced pain, topical PS 8% (Example 2); assay type: in vivo, mouse
Text: as §1, §3, §2

[15] = Baseline, prior to NTG administration
[16] = Post-compound administration, 30 min after single i.p. dose, topiramate 30 mg/kg, sumatriptan 600 μg/kg

Structure (SMILES): CN(N=O)C(=O)N[C@H]1C(O)O[C@H](CO)[C@@H](O)[C@@H]1O (mixture of isomers) [STZ, streptozotocin]
- PWT, gm Mean ± SEM ([1]; week 7, PS 8% hydrogel to both hind paws 3 times a day for 3 weeks from week 4 after STZ): 15.7 ± 0.84 gm

Structure (SMILES): NCC1(CC(=O)O)CCCCC1 [Gabapentin, gabapentin]
- PWT, g Mean ± SEM [2]: 1.44 ± 0.25 g

Structure (SMILES): O=[N+]([O-])OCC(CO[N+](=O)[O-])O[N+](=O)[O-] [NTG, nitroglycerin]
- PWT, g Mean ± SEM [3, 15]: 1.95 ± 0.18 g
- PWT, g Mean ± SEM ([3]; Day 11, orally once a day for 11 days concurrent with NTG, PS 50 mg/kg, sulindac 33 mg/kg): 0.66 ± 0.11 g
- PWT, g 30 min Mean ± SEM ([4]; 30 min after sublingual NTG 0.4 mg): 0.70 ± 0.12 g
- PWT, g 60 min Mean ± SEM ([4]; 60 min after sublingual NTG 0.4 mg): 0.51 ± 0.05 g

Structure (SMILES): CC(=O)O[C@H]1C(=O)[C@@]2(C)[C@H]([C@H](OC(=O)c3ccccc3)[C@]3(O)C[C@H](OC(=O)[C@H](O)[C@@H](NC(=O)c4ccccc4)c4ccccc4)C(C)=C1C3(C)C)[C@]1(OC(C)=O)CO[C@@H]1C[C@@H]2O [Paclitaxel, paclitaxel, reference compound]
- mechanical allodynia score, mean±SEM ([5]; day 0 (initiation of treatment), paclitaxel-induced pain): 0.78 ± 0.08 g
- mechanical allodynia score, mean±SEM ([5]; day 16, PS 8% ointment 3x/day to hind paws): 0.57 ± 0.05 g
- reduction of mechanical allodynia scores by paclitaxel ([5]; paclitaxel administered over 12 days, cumulative 32 mg/kg i.p.): ~85%
- cold allodynia score (acetone test) [6]: 7.1 ± 0.4 s
- PWT, g Mean ± SEM [7]: 0.53 ± 0.03 g
- mechanical allodynia score, mean±SEM ([8]; day 0, after paclitaxel, central sensitization fully established): 0.55 ± 0.05 g
- PWT, % baseline Mean ± SEM [9]: 86.75 ± 5.42 % baseline

Structure (SMILES): CC(C)NCC(O)COc1cccc2ccccc12 (stereo not drawn) [Propanolol, propranolol]
- PWT, g Mean ± SEM [2]: 1.37 ± 0.14 g

Structure (SMILES): CC1=C(CC(=O)O)c2cc(F)ccc2/C1=C\c1ccc(S(C)(=O)=O)cc1 [Sulindac sulfone, sulindac sulfone]
- Distal half of sciatic nerve, mean ± SEM [10]: 0.9 ± 0.2 µM
- Fold difference (distal vs proximal) [10]: 4.5 fold
- Proximal half of sciatic nerve, μM, mean ± SEM [10]: 0.2 ± 0.08 µM

Structure (SMILES): CNS(=O)(=O)Cc1ccc2[nH]cc(CCN(C)C)c2c1 [Sumatriptan, sumatriptan]
- PWT, g Mean ± SEM [11, 15]: 1.90 ± 0.06 g
- PWT, g Mean ± SEM ([11]; Day 12 (pre-treatment)): 0.57 ± 0.02 g
- PWT, g Mean ± SEM [11, 16]: 1.33 ± 0.17 g
- PWT, g Mean ± SEM [2]: 1.34 ± 0.12 g

Structure (SMILES): CC1(C)O[C@@H]2[C@@H](CO[C@@]3(COS(N)(=O)=O)OC(C)(C)O[C@@H]23)O1 [Topiramate, topiramate]
- PWT, g Mean ± SEM [11, 15]: 2.40 ± 0.24 g
- PWT, g Mean ± SEM ([11]; Day 12 (pre-treatment)): 0.60 ± 0.00 g
- PWT, g Mean ± SEM [11, 16]: 1.76 ± 0.11 g
- PWT, g Mean ± SEM [2]: 1.40 ± 0.14 g

Structure (SMILES): CCN(CC)CC(=O)Nc1c(C)cccc1C [lidocaine]
- PWT, gm Mean ± SEM ([1]; 0.7% sulindac hydrogel 3 times a day for 1 week, 5% lidocaine cream once 30 min before, pregabalin 10 mg/kg orally once 1 h before): 26.0 ± 1.8 gm
- PWT, g Mean ± SEM ([8]; day 14, PS hydrogel 5% or 0.7% sulindac 3 times a day, 5% lidocaine cream once 30 min before, pregabalin 10 mg/kg orally once 1 h before): 1.48 ± 0.12 g

Structure (SMILES): O=C1[O][Pt]2([NH][C@@H]3CCCC[C@H]3[NH]2)[O]C1=O [oxaliplatin, reference compound]
- reduction of allodynia score during oxaliplatin administration [12]: 65% and 56%

Structure (SMILES): CC(C)C[C@H](CN)CC(=O)O [pregabalin, reference compound]
- PWT, g Mean ± SEM [13]: 1.1 ± 0.10 g
- PWT, g Mean ± SEM ([13]; listed as Pregabalin): 1.1 ± 0.10 g

Structure (SMILES): CC[C@]1(O)C[C@H]2CN(CCc3c([nH]c4ccccc34)[C@@](C(=O)OC)(c3cc4c(cc3OC)N(C=O)[C@H]3[C@@](O)(C(=O)OC)[C@H](OC(C)=O)[C@]5(CC)C=CCN6CC[C@]43[C@@H]65)C2)C1 [vincristine]
- mechanical allodynia score, mean±SEM ([14]; day 0): 0.7 ± 0.07 g
- reduction of mechanical allodynia score by vincristine ([14]; day 0 vs day -7, three groups, cumulative 3 mg/kg i.p.): 61%-65%
- mechanical allodynia score, mean±SEM ([14]; day 16): 0.8 ± 0.09 g
